Experimental data as given in patent publication US20250320193A1, “OXOISOINDOLINYL SUBSTITUTED PIPERIDINEDIONE DERIVATIVE AND USE THEREOF” (GLUETACS THERAPEUTICS (SHANGHAI) CO., LTD., priority 2022, published 2025).

Assays:
[1] = target: IKZF1 (Homo sapiens (Human), UniProt Q13422+Q96SW2); test: Western blot, substrate protein expression in hPBMC: IKZF1; assay type: cell-based; details: hPBMC, compound 500 nM, 24 hours, Western blot
Outline: (§1)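 hPBMC, 1×10^6 cells/mL, 24 h compound exposure; RIPA lysis, BCA protein assay, SDS-PAGE, NC membrane immunoblot. Densitometry vs internal control → % protein remaining; degradation % = 100% − remaining; DC50 = conc. at 50% of DMSO band signal.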

[2] = target: GSPT1 (Homo sapiens (Human), UniProt P15170+Q96SW2); test: Western blot, substrate protein expression in hPBMC: GSPT1; assay type: cell-based; details: hPBMC, compound 500 nM, 24 hours, Western blot
GSPT1, sequence (P15170 whole entry): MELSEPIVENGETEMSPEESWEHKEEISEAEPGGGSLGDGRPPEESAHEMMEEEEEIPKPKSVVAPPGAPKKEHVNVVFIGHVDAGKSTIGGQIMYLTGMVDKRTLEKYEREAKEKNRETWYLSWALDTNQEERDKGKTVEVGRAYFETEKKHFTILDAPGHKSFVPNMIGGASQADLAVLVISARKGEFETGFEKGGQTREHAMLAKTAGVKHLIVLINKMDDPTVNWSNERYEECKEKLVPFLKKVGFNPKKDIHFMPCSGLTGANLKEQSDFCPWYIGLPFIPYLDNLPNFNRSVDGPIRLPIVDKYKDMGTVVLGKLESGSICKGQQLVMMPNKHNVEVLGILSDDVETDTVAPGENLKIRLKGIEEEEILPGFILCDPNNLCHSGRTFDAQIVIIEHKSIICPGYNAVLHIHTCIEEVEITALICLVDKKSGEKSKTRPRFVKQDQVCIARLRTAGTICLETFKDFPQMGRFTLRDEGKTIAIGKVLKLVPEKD
GSPT1, sequence (Q96SW2 whole entry): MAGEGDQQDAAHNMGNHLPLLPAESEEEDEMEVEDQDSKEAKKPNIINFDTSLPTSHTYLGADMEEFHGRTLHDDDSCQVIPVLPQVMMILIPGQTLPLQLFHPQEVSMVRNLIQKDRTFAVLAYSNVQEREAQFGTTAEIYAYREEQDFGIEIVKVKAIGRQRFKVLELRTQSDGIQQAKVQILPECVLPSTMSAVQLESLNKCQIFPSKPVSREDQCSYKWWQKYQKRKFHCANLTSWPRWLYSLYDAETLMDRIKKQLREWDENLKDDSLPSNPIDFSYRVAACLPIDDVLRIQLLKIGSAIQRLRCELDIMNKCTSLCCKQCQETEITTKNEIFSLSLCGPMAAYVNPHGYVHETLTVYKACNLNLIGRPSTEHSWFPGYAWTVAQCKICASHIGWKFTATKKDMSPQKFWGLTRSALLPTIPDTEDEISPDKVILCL
GSPT1, sequence (Q16531 whole entry partner): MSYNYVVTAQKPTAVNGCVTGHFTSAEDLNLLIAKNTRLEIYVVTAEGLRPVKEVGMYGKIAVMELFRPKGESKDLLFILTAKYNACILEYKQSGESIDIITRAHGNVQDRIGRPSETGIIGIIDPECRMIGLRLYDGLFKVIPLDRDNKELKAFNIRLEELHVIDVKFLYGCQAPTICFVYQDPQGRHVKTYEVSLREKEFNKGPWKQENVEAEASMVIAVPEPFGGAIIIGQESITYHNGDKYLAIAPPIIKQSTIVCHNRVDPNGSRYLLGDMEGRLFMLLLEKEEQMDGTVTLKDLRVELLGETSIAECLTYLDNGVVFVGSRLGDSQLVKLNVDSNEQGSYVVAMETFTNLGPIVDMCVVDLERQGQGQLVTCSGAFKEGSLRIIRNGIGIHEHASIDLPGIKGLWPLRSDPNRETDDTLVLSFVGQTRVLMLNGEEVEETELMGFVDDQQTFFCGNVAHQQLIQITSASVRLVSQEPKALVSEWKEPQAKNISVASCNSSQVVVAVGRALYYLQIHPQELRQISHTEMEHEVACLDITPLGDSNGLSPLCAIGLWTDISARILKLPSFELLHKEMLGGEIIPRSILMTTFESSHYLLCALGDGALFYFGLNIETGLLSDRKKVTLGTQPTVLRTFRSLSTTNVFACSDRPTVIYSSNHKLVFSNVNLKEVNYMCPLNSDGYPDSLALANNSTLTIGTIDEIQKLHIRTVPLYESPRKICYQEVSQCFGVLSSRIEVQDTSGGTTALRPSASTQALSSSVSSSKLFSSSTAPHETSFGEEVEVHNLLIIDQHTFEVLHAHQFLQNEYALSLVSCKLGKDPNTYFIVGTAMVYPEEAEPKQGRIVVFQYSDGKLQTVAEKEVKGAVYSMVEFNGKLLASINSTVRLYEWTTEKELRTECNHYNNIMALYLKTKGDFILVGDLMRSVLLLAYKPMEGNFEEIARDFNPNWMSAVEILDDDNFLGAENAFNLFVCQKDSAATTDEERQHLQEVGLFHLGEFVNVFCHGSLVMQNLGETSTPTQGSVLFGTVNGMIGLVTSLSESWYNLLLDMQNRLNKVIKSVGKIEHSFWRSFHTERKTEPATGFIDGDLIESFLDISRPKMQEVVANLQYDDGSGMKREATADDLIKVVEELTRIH
Outline: as §1

[3] = target: IKZF3 (Homo sapiens (Human), UniProt Q96SW2+Q9UKT9); test: Western blot, substrate protein expression in hPBMC: IKZF3; assay type: cell-based; details: hPBMC, compound 500 nM, 24 hours, Western blot
IKZF3, sequence (Q9UKT9 whole entry): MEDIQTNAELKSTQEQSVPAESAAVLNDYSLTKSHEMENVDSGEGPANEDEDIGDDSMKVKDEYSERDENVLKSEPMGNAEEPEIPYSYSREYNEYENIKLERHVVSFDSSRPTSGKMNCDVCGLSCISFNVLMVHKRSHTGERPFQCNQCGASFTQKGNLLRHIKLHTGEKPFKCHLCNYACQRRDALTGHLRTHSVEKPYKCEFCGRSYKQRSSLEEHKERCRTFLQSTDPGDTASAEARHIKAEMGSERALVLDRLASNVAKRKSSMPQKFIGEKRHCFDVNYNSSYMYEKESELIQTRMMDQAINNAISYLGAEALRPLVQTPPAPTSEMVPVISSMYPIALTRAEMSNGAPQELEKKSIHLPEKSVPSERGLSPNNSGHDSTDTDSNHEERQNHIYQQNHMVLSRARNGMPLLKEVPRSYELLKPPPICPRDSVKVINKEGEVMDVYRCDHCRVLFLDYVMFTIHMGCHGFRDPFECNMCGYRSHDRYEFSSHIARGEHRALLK
IKZF3, sequence (Q96SW2 whole entry): as the sequence (Q96SW2 whole entry) above
IKZF3, sequence (Q16531 whole entry partner): as the sequence (Q16531 whole entry partner) above
Outline: as §1

[4] = target: human Cereblon WT GST-tagged protein (Homo sapiens (Human), UniProt Q96SW2); test: CRBN-binding affinity, HTRF (CEREBLON BINDING kit, CISBIO); details: HTRF inhibitory activity
human Cereblon WT GST-tagged protein, sequence (Q96SW2 whole entry): as the sequence (Q96SW2 whole entry) above
Outline: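 Compounds were mixed with GST-tagged human Cereblon WT protein, then with Thalidomide-Red tracer and GST Eu antibody, and binding was read by HTRF. Inhibition rate was calculated from 620 nm emission relative to blank control wells (no protein) and solvent control wells.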

IKZF1, sequence (Q13422 whole entry): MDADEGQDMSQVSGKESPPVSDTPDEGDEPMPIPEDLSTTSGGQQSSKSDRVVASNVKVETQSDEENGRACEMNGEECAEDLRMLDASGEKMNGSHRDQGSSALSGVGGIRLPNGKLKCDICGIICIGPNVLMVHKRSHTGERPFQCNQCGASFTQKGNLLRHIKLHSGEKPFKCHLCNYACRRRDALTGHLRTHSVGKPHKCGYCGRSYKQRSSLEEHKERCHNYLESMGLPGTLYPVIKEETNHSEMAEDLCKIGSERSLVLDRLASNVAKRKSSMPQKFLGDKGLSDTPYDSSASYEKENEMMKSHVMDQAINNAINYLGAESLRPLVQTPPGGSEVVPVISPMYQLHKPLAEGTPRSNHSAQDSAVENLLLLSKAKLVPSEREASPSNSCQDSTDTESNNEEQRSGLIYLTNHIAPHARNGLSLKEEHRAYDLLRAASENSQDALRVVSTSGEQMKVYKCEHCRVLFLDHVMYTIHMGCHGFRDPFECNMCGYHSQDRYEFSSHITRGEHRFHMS
IKZF1, sequence (Q96SW2 whole entry): as the sequence (Q96SW2 whole entry) above
IKZF1, sequence (Q16531 whole entry partner): as the sequence (Q16531 whole entry partner) above

IC50 [4] [nM] | SMILES | substrate protein remaining % IKZF1 [1] | substrate protein remaining % GSPT1 [2] | substrate protein remaining % IKZF3 [3]
1000 to 1900 | O=C1CCC(N2Cc3c(CN4CCC5(CC4)CCN(C(c4ccccc4)c4ccccc4)CC5)cccc3C2=O)C(=O)N1 (stereo not shown) [GT-06027, 3-(4-((9-benzhydryl-3,9-diazaspiro[5.5]undecan-3-yl)methyl)-1-oxoisoindolin-2-yl)piperidine-2,6-dione] | B (B represents substrate protein remaining % > 50%) | A (A represents 0% ≤ substrate protein remaining % ≤ 50%) | B (B represents substrate protein remaining % > 50%)
< 500 | O=C1CCC(N2Cc3c(ccc(CN4CC5CN(C(c6ccccc6)c6ccccc6)CC5C4)c3F)C2=O)C(=O)N1 (stereo not shown) [GT-06044, 3-(5-((5-benzhydrylhexahydropyrrolo[3,4-c]pyrrol-2 (1H)-yl)methyl)-4-fluoro-1-oxoisoindolin-2-yl)piperidine-2,6-dione] | B (B represents substrate protein remaining % > 50%) | A (A represents 0% ≤ substrate protein remaining % ≤ 50%) | A (A represents 0% ≤ substrate protein remaining % ≤ 50%)
< 500 | O=C1CCC(N2Cc3cc(CN4CC5CN(C(c6ccccc6)c6ccccc6)CC5C4)cc(F)c3C2=O)C(=O)N1 (stereo not shown) [GT-06045, 3-(5-((5-benzhydrylhexahydropyrrolo[3,4-c]pyrrol-2 (1H)-yl)methyl)-7-fluoro-1-oxoisoindolin-2-yl)piperidine-2,6-dione] | B (B represents substrate protein remaining % > 50%) | A (A represents 0% ≤ substrate protein remaining % ≤ 50%) | B (B represents substrate protein remaining % > 50%)
500 to 1000 | C[C@@H]1CN(C(c2ccccc2)c2ccccc2)CCN1Cc1cc2c(cc1F)C(=O)N(C1CCC(=O)NC1=O)C2 (stereo partly drawn) [GT-06046, 3-(5-(((R)-4-benzhydryl-2-methylpiperazin-1-yl)methyl)-6-fluoro-1-oxoisoindolin-2-yl)piperidine-2,6-dione] | B (B represents substrate protein remaining % > 50%) | A (A represents 0% ≤ substrate protein remaining % ≤ 50%) | B (B represents substrate protein remaining % > 50%)
< 500 | O=C1CCC(N2Cc3cc(CN4CCN(C5c6cc(Cl)ccc6-c6ccc(Cl)cc65)CC4)ccc3C2=O)C(=O)N1 (stereo not shown) [GT-06048, 3-(5-((4-(2,7-dichloro-9H-fluoren-9-yl)piperazin-1-yl)methyl)-1-oxoisoindolin-2-yl)piperidine-2,6-dione] | A (A represents 0% ≤ substrate protein remaining % ≤ 50%) | A (A represents 0% ≤ substrate protein remaining % ≤ 50%) | A (A represents 0% ≤ substrate protein remaining % ≤ 50%)
< 500 | O=C1CCC(N2Cc3cc(CN4CC5CN(C(c6ccccc6)c6ccccc6)CC5C4)ccc3C2=O)C(=O)N1 (stereo not shown) [GT-06050, 3-(5-((5-benzhydrylhexahydropyrrolo[3,4-c]pyrrol-2 (1H)-yl)methyl)-1-oxoisoindolin-2-yl)piperidine-2,6-dione] | B (B represents substrate protein remaining % > 50%) | A (A represents 0% ≤ substrate protein remaining % ≤ 50%) | B (B represents substrate protein remaining % > 50%)
< 500 | O=C1CCC(N2Cc3c(CN4CC5CN(C(c6ccccc6)c6ccccc6)CC5C4)cccc3C2=O)C(=O)N1 (stereo not shown) [GT-06052, 3-(4-((5-benzhydrylhexahydropyrrolo[3,4-c]pyrrol-2 (1H)-yl)methyl)-1-oxoisoindolin-2-yl)piperidine-2,6-dione] | B (B represents substrate protein remaining % > 50%) | A (A represents 0% ≤ substrate protein remaining % ≤ 50%) | B (B represents substrate protein remaining % > 50%)
